According to PMC11237012, “Synthesis and preliminary evaluation of novel PET probes for GSK-3 imaging” (Scientific Reports, 2024):

Test: Radiochemical stability in isotonic NaCl solution (rad-TLC)
Format: physicochemical
Conditions: 37 °C
Protocol: The stability of PET probes [^18F]2 and [^18F]6 was measured in isotonic NaCl solution (0.9% NaCl) and mouse and human serums at 37 °C for up to 120 min by rad-TLC at 0 min, 30 min, 60 min and 120 min post incubation. The results obtained are presented in Fig. 5 and SI-Figs. S10–S15, SI-Table S1. […] The plausible explanation of the instability of [^18F]6 could be attributed to the covalent interaction of [^18F]6’s SO2F group with primary amines of amino acid residues present in the protein rich mouse and human serums. In fact, in an unrelated study, Zhao et al. reported formation of sulfonamide bond between sulfuryl fluoride and primary amine of conserved lysine residues of different kinases. […] Based on 2’s favorable blood–brain barrier permeability, nanomolar binding affinity and PET probe [^18F]2’s excellent stability in both mouse and human serums, further in vivo evaluations were performed only with PET probe [^18F]2.
Stability of [^18F]2 and [^18F]6 was assessed in isotonic NaCl solution and human and mouse serums. To perform this stability assay, 100 µL of [^18F]2 (~ 37.0 MBq) or 100 µL of [^18F]6 (~ 37.0 MBq) as in final formulation was added to 100 µL of human serum or mouse serum in a microcentrifuge tube. The resultant mixture was incubated at 37 °C for 120 min. To assess the radiochemical stability of the probes, a small aliquot (~ 0.5 µL) was taken out from the mixture in triplicate at 0 min, 30 min, 60 min and 120 min during incubation, and analyzed on a rad-TLC using 0.5:9.5 methanol: chloroform as a mobile phase using i-TLC to estimate the stability of [^18F]2 or [^18F]6 at different time points post-incubation. After Stability preparative processes initial i-TLC development was considered as 0 min.

Percentage of intact probe (0 min): 100 ± 0.0%
Percentage of intact probe (30 min): 100 ± 0.0%
Percentage of intact probe (60 min): 100 ± 0.0%
Structure (SMILES): O=C(Nc1cnccc1-c1ccc([18F])cc1)c1ccnc(NC(=O)C2CC2)c1 [[^18F]2]
